Measurements taken from patent US20260069558A1, “RXFP1 MODULATORS FOR TREATING RESISTANT HYPERTENSION OR HEART FAILURE WITH PULMONARY HYPERTENSION” (ASTRAZENECA AB, priority 2022, published 2026).
pEC50: −log10 of the molar value. Values after ≈ are worked out from the molar mass of the structure shown.

Legend:
[1] = Rat Hepatocyte Stability (Test E); type: in vitro ADME; conditions: rat hepatocytes; geometric mean
Method: Rat Hepatocyte Stability (Test E)
The assay was conducted according to the Rat Hepatocyte Stability Assay described in pages 170-174 of Wernevik, J. et al., “A Fully Integrated Assay Panel for Early Drug Metabolism and Pharmacokinetics Profiling”, Assay and Drug Development Technologies, 2020, 18(4), 157-179. Data are reported in Table 1 as mean Clint (μl/min/10^6 cells). Where the assay was run multiple times for the same compound, the geometric mean is reported.

[2] = Human Hepatocyte Stability (Test D); type: in vitro ADME; conditions: cryopreserved pooled human hepatocytes (LiverPool 10-Donor), geometric mean
Method: Human Hepatocyte Stability (Test D)
Prepare 10 mM stock solutions of compound and control compounds in appropriate solvent (DMSO). Place incubation medium (L-15 Medium) in a 37° C. water bath, and allow warming for at least 15 minutes prior to use. • 2. […] Remove a vial of cryopreserved (less than −150° C.) human hepatocytes (LiverPool™ 10-Donor Human hepatocytes obtained from Bioreclamation IVT (Product No. S01205)) from storage, ensuring that vials remain at cryogenic temperatures until thawing process ensues. As quickly as possible, thaw the cells by placing the vial in a 37° C. water bath and gently shaking the vials. Vials should remain in water bath until all ice crystals have dissolved and are no longer visible. After thawing is complete, spray vial with 70% ethanol, transfer the vial to a bio-safety cabinet. • 5. Open the vial and pour the contents into the 50 mL conical tube containing thawing medium. Place the 50 mL conical tube into a centrifuge and spin at 100 g for 10 minutes (room temperature). […] Using Cellometer® Vision, count cells and determine the viable cell density. […]
All calculations were carried out using Microsoft Excel. Peak areas were determined from extracted ion chromatograms. In vitro intrinsic clearance (in vitro Clint, in μL/min/10^6 cells) of parent compound was determined by regression analysis of the Ln percent parent disappearance vs. time curve.

[3] = Human Liver Microsomal Stability (Test C); type: in vitro ADME; conditions: human liver microsomes; arithmetic mean
Method: Human Liver Microsomal Stability (Test C)
The assay was conducted according to the Human Liver Microsome Stability Assay described in pages 170-174 of Wemevik, J. et al., “A Fully Integrated Assay Panel for Early Drug Metabolism and Pharmacokinetics Profiling”, Assay and Drug Development Technologies, 2020, 18(4), 157-179. Data are reported in Table 1 as CLint (μl/min/mg protein).
Where the assay was run multiple times for the same compound, the arithmetic mean is reported.

[4] = Human Plasma Protein Binding (Test B); type: in vitro ADME; conditions: fraction unbound (fu), arithmetic mean
Method: Human Plasma Protein Binding (Test B)
The assay was conducted according to the Human Plasma Protein Binding Assay described in pages 167-170 of Wemevik, J. et al., “A Fully Integrated Assay Panel for Early Drug Metabolism and Pharmacokinetics Profiling”, Assay and Drug Development Technologies, 2020, 18(4), 157-179. Data are reported in Table 1 as fraction unbound (fu) (% free). Where the assay was run multiple times for the same compound, the arithmetic mean is reported.

Solubility (Test F) = type: physicochemical; conditions: arithmetic mean
Method: The assay was conducted according to the Solubility Assay described in pages 164-167 of Wemevik, J. et al., “A Fully Integrated Assay Panel for Early Drug Metabolism and Pharmacokinetics Profiling”, Assay and Drug Development Technologies, 2020, 18(4), 157-179. Where the assay was run multiple times for the same compound, the arithmetic mean is reported.

human RXFP1 = biological target: T1, human RXFP1 (Homo sapiens, UniProt Q9HBX9); assay: RXFP1 Hu cAMP (Test A), HTRF cAMP production; type: cell-based; conditions: for Test A Sinf: fitted efficacy at infinite concentration, normalized to response of 1 nM relaxin, arithmetic mean
T1 construct: expressed in transfected cells; host or cells: Jump-In T-REx CHO-K1 cells (ThermoFisher)
T1 sequence (Q9HBX9 1-757): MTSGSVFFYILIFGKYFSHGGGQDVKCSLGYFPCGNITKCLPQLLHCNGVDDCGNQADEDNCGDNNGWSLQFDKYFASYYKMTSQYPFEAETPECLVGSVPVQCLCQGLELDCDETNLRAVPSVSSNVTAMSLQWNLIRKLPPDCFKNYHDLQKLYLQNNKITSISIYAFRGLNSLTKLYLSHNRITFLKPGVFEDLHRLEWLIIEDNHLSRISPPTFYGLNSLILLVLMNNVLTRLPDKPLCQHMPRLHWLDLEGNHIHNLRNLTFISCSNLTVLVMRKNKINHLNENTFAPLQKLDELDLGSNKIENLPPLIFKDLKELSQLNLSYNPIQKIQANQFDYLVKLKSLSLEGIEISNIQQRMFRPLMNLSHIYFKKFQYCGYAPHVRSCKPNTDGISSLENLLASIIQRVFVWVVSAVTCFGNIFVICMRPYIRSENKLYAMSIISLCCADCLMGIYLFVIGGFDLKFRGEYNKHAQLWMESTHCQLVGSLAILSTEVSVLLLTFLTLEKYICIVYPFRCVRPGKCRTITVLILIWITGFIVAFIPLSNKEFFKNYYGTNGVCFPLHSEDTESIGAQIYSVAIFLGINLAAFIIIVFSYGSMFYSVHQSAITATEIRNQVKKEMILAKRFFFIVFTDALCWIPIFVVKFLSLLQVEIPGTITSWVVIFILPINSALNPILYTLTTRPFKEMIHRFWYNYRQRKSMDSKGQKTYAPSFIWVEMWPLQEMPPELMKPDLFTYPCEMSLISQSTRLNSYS
Excerpt: To screen for modulators of hRXFP1, an assay identifying compounds that stimulate cAMP production via the Gs-coupled hRXFP1 receptor was used. cAMP HiRange HTRF kit (available from CisBio Bioassays, France; catalogue number 62AM6PEJ) was employed in large according to manufacturer's recommendations for detection of cAMP. The HTRF method is a competitive immunoassay between native cAMP produced by cells and cAMP labeled with the dye d2. The tracer binding is visualized with a cryptate labeled antibody for cAMP and the signal is thus inversely proportional to the amount of produced cAMP.
Cells: Jump-In™ T-REx™ CHO-K1 Cells (ThermoFisher) stably transfected with human RXFP1 was employed. Cells were induced to express human RXFP1 by treatment with 10 ng/ml doxycycline for 24 h. Cells were then cryopreserved for long term storage.
HTRF detection reagents: cAMP-d2 and anti-cAMP cryptate reconstituted according to CisBio instructions were diluted 1:40 in lysis buffer provided with the HTRF-kit.
Using a cAMP standard curve, HTRF data was converted to amount cAMP produced in the samples which was subsequentially used for calculation of concentration responses.
Concentration response data were fitted with a four parameter logistic fit, the Hill equation.
Where the assay was run multiple times for the same compound, the geometric mean is reported.
Sinf is the fitted activity level, efficacy, at infinite concentration of test compound. To facilitate comparison of efficacy data, efficacy was normalized to % effect of the response stimulated by a saturating concentration of relaxin (1 nM). Where the assay was run multiple times for the same compound, the arithmetic mean is reported.

SMILES | hepatocyte CLint [1] | hepatocyte CLint at 1 µM [2] | microsomal CLint [3] | Test B Human Plasma Protein Binding (% free) [4] | solubility (Solubility (Test F)) | Test A Sinf (human RXFP1) | pEC50 (human RXFP1; cAMP production, Jump-In T-REx CHO-K1 cells stably transfected with human RXFP1, geometric mean)
COc1cc(C#N)c(O[C@H]2CC[C@@](C)(C(=O)O)CC2)cc1C(=O)N[C@@H]1[C@H]2CC[C@H](C2)[C@@H]1C(=O)NCC(C)(C)C [Example 5, (1S,4s)-4-(2-cyano-4-methoxy-5-(((1S,2R,3S,4R)-3-(neopentylcarbamoyl)bicyclo[2.2.1]heptan-2-yl)carbamoyl)phenoxy)-1-methylcyclohexane-1-carboxylic acid] | 15 µL/min/1e6 cells | < 1.2 µL/min/1e6 cells | < 3 µL/min/mg | 12 % free | 910 µM (≈ 491 µg/mL) | – | –
COc1cc(C#N)c(O[C@H]2CC[C@@](C)(C(=O)O)CC2)cc1C(=O)N[C@@H]1[C@H]2CC[C@H](C2)[C@@H]1C(=O)NCC1CC1 [Example 3, (1S,4s)-4-(2-Cyano-5-(((1S,2R,3S,4R)-3-((cyclopropylmethyl)carbamoyl)bicyclo[2.2.1]heptan-2-yl)carbamoyl)-4-methoxyphenoxy)-1-methylcyclohexane-1-carboxylic acid] | – | – | – | – | – | 97% | –
COc1cc(F)c(O[C@H]2CC[C@@](C)(C(=O)O)CC2)cc1C(=O)N[C@@H]1[C@H]2CC[C@H](C2)[C@@H]1C(=O)NCC1CCC1 [Example 2, (1S,4s)-4-(5-(((1S,2R,3S,4R)-3-((cyclobutylmethyl)carbamoyl)bicyclo[2.2.1]heptan-2-yl)carbamoyl)-2-fluoro-4-methoxyphenoxy)-1-methylcyclohexane-1-carboxylic acid] | – | – | – | – | – | 101% | 6.64
